Holding throughout (assay type): cell-based, Clostridium thermocellum
Assay [1] relates to C. thermocellum. Briefly: Plating on media containing 5-FOA (pyrF negative selection). The conditions noted are these: for colony survival after plating on 5-FOA: rich media containing 500 μg of 5-FOA; for growth on media containing 5-FOA: FIG. 8. The procedure:
Plasmid pMU482 was transformed into the wild type C. thermocellum strain 1313 and selected on a rich media containing thyamphenicol (at the concentration of 6 μg/ml) to select for cells containing the cat marker encoded on the plasmid. A schematic displaying the creation of the knockout vector is depicted in FIG. 2. Several colonies that resulted from the selection scheme were selected for PCR analysis to confirm that the plasmid had been transformed into the cells. A transformed colony was diluted into liquid, rich medium containing thyamphenicol at the concentration of 6 μg/ml and grown overnight. A culture containing pMU102 (control plasmid) was also grown similarly. The next day, each culture was serially diluted by ten fold (up to 10^−3) using fresh, rich media and 100 μL of the undiluted culture. Each of the dilutions were plated on rich media containing 500 μg of 5-FOA. A schematic of this plating strategy is depicted in FIG. 3.
The plasmid-free C. thermocellum ΔpyrF strain created above was tested to confirm that negative selection could be appropriately applied. Cells were grown and plated using media containing the toxic analog 5-fluoroorotic acid (5-FOA). The protein product of the pyrF gene converts 5-FOA into a toxic compound. Thus, the C. thermocellum ΔpyrF strain should be resistant to 5-FOA, but the wild type or a complemented strain should be susceptible to 5-FOA and unable to grow.

Assay [2] deals with C. thermocellum. Briefly: Growth in rich medium with uracil supplementation. Conditions: ΔpyrF strain; rich medium with additional 40 μg/ml uracil; 55° C. The procedure: Growth rate measurements were performed in a 200 μl volume in a 96-well plate at 55° C. The optical density at 600 nm was read by a Powerwave XS platereader customized by the manufacturer to incubate up to 68° C. (BioTek). The plates were shaken continuously and read at three minute intervals. Each sample was measured in quadruplicate. The specific growth rate (0 was determined by measuring the slope of the natural log-transformed OD readings. A two hour sliding window of OD readings between 0.08 and 1.00 were used for determination of maximum rate μmax. In all cases, the R-squared value was greater than 0.99.
The growth of the pta::gapDHp-cat strain was compared to the wt and ΔpyrF strains in rich medium, with and without uracil supplementation. […] End product analysis was performed on batch fermentations started at pH 7.0 with 5 g/l cellobiose as the primary carbon source under anaerobic conditions with a nitrogen atmosphere and 80 ml working volume. After 48 hours of fermentation the wt and ΔpyrF strain produced about 1 g/l of acetic acid whereas the acetic acid production of the pta::gapDHp-cat was indistinguishable from background levels (average 0.03 g/l).

In assay [3] the test system is C. thermocellum. Briefly: Plating in the presence of FUDR (tdk negative selection). Conditions: FIG. 18. On the procedure: To this end, the C. thermocellum pyrF::tdk strain and the control C. thermocellum ΔpyrF strain were plated in the presence of 10 μg/ml FUDR. For each culture, a 10 dilution was used for the plating.
In assay [4] the test system is C. thermocellum. Put plainly: Plating of cured Δhpt strain on thiamphenicol. The conditions noted are these: plasmid-cured Δhpt strain; after 5 days. On the procedure:
To verify this, the new strain was grown up overnight and plated on thiamphenicol.

The subject of assay [5] is C. thermocellum. Put plainly: Plating on 8-azahypoxanthine (hpt negative selection, complementation). The conditions noted are these: 500 ug/ml 8-AzaH, FIG. 26. On the procedure:
Plasmid pMU1657 was transformed into the wild type C. thermocellum strain 1313 and selected for on chloramphenicol. Several colonies were selected and the transformed plasmid was verified by PCR. A colony was diluted into C. thermocellum growth medium and grown overnight. The following morning the dilution closest to an O.D of ˜1.0 was serially diluted and plated on defined medium containing 500 ug/ml 8-azahypoxanthine. Two days later, colonies were observed on the dilution representing 10^−3. Six colonies were selected and PCR screens were performed to verify that the hpt gene had been deleted from the chromosome. After PCR amplification, the expected size of the wild type product having no deletion is 3380 bp and the expected size of the hpt deletion is 2820 bp. […] The colonies were subsequently screened by PCR amplification to confirm that the plasmid had been cured (or lost). In FIG. 25, lane (P) represents the plasmid control that is 3750 bp in size. Colonies that have lost the plasmid would have no product migrating in the lane. The lack of product in lanes 1-6 representing the six different colonies confirm that the plasmid had been cured.
To provide stronger support for this conclusion, the knockout plasmid was reintroduced to look for complementation of the phenotype. […]

Take `O=C(O)c1[nH]c(=O)[nH]c(=O)c1F` [5-FOA, 5-fluoroorotic acid]: the “colony survival after plating on 5-FOA” value in the assay on C. thermocellum [1] (colonies containing wild-type pyrF) is on record as “did not survive”; in the assay with C. thermocellum [1] (colonies that contained the pyrF disruption) it was “visible”. Besides, the “growth on media containing 5-FOA” value in the assay with C. thermocellum [1] (plasmid-free ΔpyrF strain (also with control plasmid pMU102)) was “able to grow”; in the assay on C. thermocellum [1] (ΔpyrF strain transformed with complementing plasmid pMU612 expressing pyrF), “no growth”.
Regarding `O=c1cc[nH]c(=O)[nH]1` [uracil], the “effect of uracil supplementation on growth” value with C. thermocellum [2] was “eliminated the growth defect”.
On to `O=c1[nH]c(=O)n([C@H]2C[C@H](O)[C@@H](CO)O2)cc1F` [FUDR, fluorodeoxyuridine], for which the “growth in the presence of FUDR” value in the assay with C. thermocellum [3] (control ΔpyrF strain without tdk, 10 μg/ml FUDR) is reported as “survived”; in the assay on C. thermocellum [3] (pyrF::tdk strain, 10 μg/ml FUDR with addition of thymidine) it was “did grow”; in the assay with C. thermocellum [3] (pyrF::tdk strain, 10 μg/ml FUDR), “did not grow”.
With `CS(=O)(=O)c1ccc([C@@H](O)[C@@H](CO)NC(=O)C(Cl)Cl)cc1` [thiamphenicol], the “resistant colonies on thiamphenicol” value with C. thermocellum [4] is “no thiamphenicol resistant colonies were observed”.
Turning to `O=c1[nH]cnc2nn[nH]c12` [8-azahypoxanthine], the “sensitivity to 8-azahypoxanthine” value in the assay on C. thermocellum [5] (Δhpt strain containing complementing plasmid pMU1657) is on record as “sensitivity comparable to wild type levels”; in the assay on C. thermocellum [5] (Δhpt strain), “completely insensitive”.

Values taken from US20130052646A1, “POSITIVE AND NEGATIVE […] FOR USE IN TH[…]” (Mascoma Corporation, priority 2009, published 2013).
